The test system of the assay is Serca2 KO mice. The assay is described as follows: Invasive P–V loop haemodynamics in cardiac-specific Serca2a knockout mice. The format is in vivo. The method, then: Figure 5 Lack of effects of N106 on haemodynamic parameters in cardiac-specific Serca2a knockout mice. Systolic and diastolic function was determined in conditional cardiac-specific Serca2a knockout mice by pressure–volume analysis. […] There was no significant change in haemodynamic parameters with N106 treatment after a single dose (1 mg kg^−1) (a-f) and different doses (0.1, 1 and 10 mg kg^−1) (g,h). Data are represented as mean±s.e.m. n=3∼8 mice per each condition. NS, not significant; Student’s t-test.
One day after echocardiography, we performed in-vivo haemodynamics. The mice were anaesthetized with an intraperitoneal injection mixture of urethane (1 mg g^−1), etomidate (10 μg g^−1) and morphine (1 μg g^−1), and were then intubated via a tracheotomy and mechanically ventilated at 7 μl g^−1 tidal volume and 120 respirations per minute. A small incision was made in the apex and a French Millar cathether connected a high-fidelity pressure transducer (Scisense, London, ON, Canada) inserted into the LV. Haemodynamic recordings were performed after 5∼10 min of stable HR. The rate of pressure rise (+dP/dt) and maximal pressure, the time constant of isovolumic relaxation and HR were recorded and analysed. To determine the relative effects of the admittance and conductance techniques to contractility change induced by N106 compound infusion, whole haemodynamic function was recorded at both baseline and after administration of N106 compound through the external jugular vein. N106 compound was solubilized in 10% DMSO (Sigma-Aldrich), 10% Tween-80 (Sigma-Aldrich) and saline for in-vivo experiments. N106 or vehicle solutions were continuously infused through the external jugular vein at a rate of 50 μl min^−1 for 2 min in each dose. Whole haemodynamic functions of increasing dose of N106 of each mouse were recorded for ∼4 h. Each dose of N106 solution was infused after back to baseline of heart function.

The mark [1] stands for this setting: Serca2a knockout mice, 1 mg kg^−1.

In the case of `COc1ccc(-c2nnc(Nc3nc4c(OC)cccc4s3)o2)cc1` [Compound N106, N-(4-methoxybenzo[d]thiazol-2-yl)-5-(4-methoxyphenyl)-1,3,4-oxadiazol-2-amine], the “improvements in haemodynamic parameters” value (Serca2 KO, 1 mg kg^−1 and 0.1, 1 and 10 mg kg^−1) is listed as “did not induce any improvements”. Moreover, under setting [1], the “+dP/dtmax” value stood at 2917.8±412.9 mm Hg s^−1, the HR was 311.2±16.1 bpm, the Pmax was determined as 75.0±4.4 mm Hg and the τ was 11.2 ± 1.0 ms. Where the note is “Serca2a knockout mice, 1 mg kg^−1 via jugular vein”, this molecule registered an ESPVR slope of 3.9±0.7 mm Hg μl^−1.
